System: non-cardiomyocyte cells of hearts post-MI
Experiment: Single cell transcriptional profiling of non-cardiomyocytes post-MI
Assay type: in vivo, mice
Procedure: Isolation of cardiac cells for single cell transcription profiling. Mice were placed under the surgical plane of anesthesia before cervical dislocation. The hearts were removed and cells were isolated by Langendorff retrograde perfusion of calcium-free pH 7.4 Tyrodes solution (130 mM NaCl, […], 0.5 mM MgCl, 0.33 mM NaH2PO4, 0.25 mm HEPES, 22 mM glucose) with collagenase, 1 mg/mL for 15 minutes. The hearts were then removed from the apparatus, and finely minced in the same Tyrodes buffer with 15 mg/mL bovine serum albumin (BSA) before trituration with a glass pipette. Cardiomyocytes were then pelleted by differential centrifugation, 300 RPM for 3 minutes. The supernatant containing the noncardiomyocyte population of cells was then filtered through a 70 micron filter and pelleted at 750 G, and resuspended in 1.1 mL 2% fetal bovine serum (FBS) in phosphate buffered saline (PBS). 0.1 mL was removed for the “no stain control” for fluorescence-activated cell sorting (FACS). The other 1 mL was incubated with 4 ug/mL Calcein Blue and 10 microM DyeCycle Ruby and incubated at 37° C. for 10 minutes. The cells were then spun down at 600G, and resuspended in 0.5 mL 2% FBS/PBS containing Sytox Green (30 nM). […] The cells were then pelleted and resuspended in 100 uL 0.4% FBS in PBS, counted, and then flowed through the 10×Genomics Chromium system for single cell transcriptomic profiling.
Isolation of cardiac cells. […] Then, 0.1 mL of the mixture was removed for the “no stain control” for fluorescence-activated cell sorting (FACS). […] The cells were then pelleted and resuspended in 100 μL 0.4% FBS in PBS, counted, and passed through the 10× Genomics Chromium system.
Single-cell RNA-sequencing. […] To identify cell clusters and differentially expressed genes, the Cell Ranger results were analyzed with Seurat suite version 3.0.0 implemented in R (version 3.4.3). Cells with <200 or >5,000 unique genes expressed or >25% of reads mapping to mitochondria were removed as quality control measure. […]

SMILES: CCC1C/C(=C\c2cccnc2)C(=O)/C(=C/c2cccnc2)C1 (stereo not drawn) [MCB-613]
- endothelial cell growth (10 weeks post-MI): stimulates endothelial cell growth of two distinct endothelial cell populations
- changes in non-cardiomyocyte cell number (12 weeks post-MI): macrophage cluster 1 and B lymphocytes decreased in number while epicardial cells, NK/T lymphocytes, fibroblasts, and endothelial cells, including lymphatic cells, were increased in cell number
- granulocyte functions (gene set enrichment) (12 weeks post-MI): suppresses inflammatory granulocyte functions
